# Results reported in US8343729B2, “Luciferin luminescent substrate of marine ostracod crustacean and method for production thereof” (National Institute of Advanced Industrial Science and …, priority 2005, dated 2013).
# Test system: Marine ostracod crustacean luciferase
# Test: Measurement of luminescence spectra of marine ostracod crustacean luciferins with luciferase
# Type: biochemical
# Details: luciferase 100 ng/mL, 50 mM Tris-HCl buffer (pH 7.5)
direction of shift of biological luminescence wavelength compared with native luciferin (11),shift of luminescence maximum wavelength to the long wavelength side compared with native luciferin (spectrum integrated for 30 seconds),SMILES
shifted to the long wavelength,,CC(c1ccccc1)c1nc2c(CCCNC(=N)N)[nH]c(-c3c[nH]c4ccccc34)cn-2c1=O (centres unmarked) [Compound 32]
shifted to the short wavelength,,CCC(C)c1nc2c(CCCNC(=N)N)[nH]c(-c3ccc4ccccc4c3)cn-2c1=O (centres unmarked) [Compound 36]
shifted to the short wavelength,,N=C(N)NCCCc1[nH]c(-c2c[nH]c3ccccc23)cn2c(=O)c(Cc3ccccc3)nc1-2 [Compound 30]
shifted to the long wavelength,,CCC(c1ccccc1)c1nc2c(CCCNC(=N)N)[nH]c(-c3c[nH]c4ccccc34)cn-2c1=O (centres unmarked) [Compound 34]
,about 15 nm,CC[C@H](C)c1nc2c(/C=C/CNC(=N)N)[nH]c(-c3c[nH]c4ccccc34)cn-2c1=O [Compound 17]
